From US20030203969A1, “Pharmaceutically active aromatic guanylhydrazones” (priority 2000, published 2003) come the findings set out here.

One may read the pIC50 as −log10 of the IC50, conventionally taken in molar units. Lower therefore signals a high IC50. For orientation: IC95 means the point of the concentration-response curve where the effect stands at 95%. A low value points to an effect from little substance.

Common to all, as to assay type: cell-based
In data set [1] the test system is Respiratory Syncytial Virus (Long). The method, then:
A cytoprotection assay procedure using MTS is employed to evaluate compounds for antiviral activity against Respiratory Syncytial Virus (Long) in Vero (African green monkey, ATCC Cat. No. CCL-81) cells. The cells are pre-grown overnight at 37° C. (2×10^4/well in 96 well tissue culture plates) with 10% fetal Bovine serum containing Minimum Essential Medium. The positive control for the assay is Interferon-Gamma/Ribavirin. The infection medium contains reduced serum levels (2% FBS).
Using half log dilutions with high test starting at 100 μg/ml the drug dilutions are made and added to triplicate cultures in 0.1 ml volume and pre-titrated virus suspension is also added in 0.1 ml volume. Cell control containing medium alone, virus controls containing medium and virus, the drug toxicity controls containing medium and each drug concentrations are run simultaneously with the test samples. […] CPE inhibition is determined by dye uptake procedure (Celltiter-MTS). Celltiter reagent contains a novel tetrazolium (MTS) compound and an electron coupling reagent phenazine ethosulfate (PES). MTS-tetrazolium is bioreduced by cells into a colored formazan product that is soluble in tissue culture medium. This conversion is accomplished by NADPH or NADH produced by dehydrogenase enzymes in metabolically active cells. The amount of soluble formazan produced by cellular reduction of the MTS is measured by the absorbance at 490 nm. The quantity of formazan product as measured by the amount of 490 nm absorbance is directly proportional to the number of living cells in the culture thus allowing the rapid quantitative analysis of the inhibition of virus-induced cell killing by the test substances. […]
The inhibitory drug concentration which reduces the viral replication by 95% (IC95) and the minimum drug concentration which inhibits cell growth by 95% (TC95) are calculated by using a regression analysis program for semilog curve fitting. A therapeutic (selectivity) index (TI) for compound No. 4 is determined by dividing the TC95 by the IC95.

Another data set has as its system HIV. In words: Relevant HIV cellular systems (summary statements). The text has this: Thus another aspect of the present invention is directed to the use of the compounds of the general formula (I) and/or pharmaceutically active salts as inhibitors of elF-5A activation and HIV replication.
The present invention therefore provides a genus of guanylhydrazone-substituted compounds that are useful as inhibitors of HIV-1, HIV-2, HTLV-I as well as for treating diseases associated with those viruses.

The next data set concerns E. Coli XL-1 blue strain. Put plainly: Growth assay for E. coli (optical density at 610 nm). The conditions noted are these: LB medium, 37° C., one day; read-out: IC50 (μM) E. coli proliferation. As to the method:
We used the E. Coli XL-1 blue strain (Stratagene) for the investigation of antibacterial activity. During this experiments LB medium was used for E. coil growth. LB was prepared as follows: 1% trypton (weight/volume), 0.5% Yeast extract (weight/volume), and 1.5% NaCl (weight/volume) were dissolved in water and autoclaved. The media contained the inhibitor at 100 μM, 10 μM, or 1 μM concentrations, respectively.
The assay was performed as follows: bacteria were seeded to 96-well plates containing the respective inhibitors. The bacteria-containing plates were incubated at 37° C. for one day. After incubation time, E. coli growth was assayed by the measurement of the optical density at 610 nm wavelength.

In data set [2] the test system is omni-drug-resistant HIV-1. In words: Inhibition of omni-drug-resistant HIV-1 in PM1 cells (p24). The method, then:
PM1 cells were infected with an “omni-drug-resistant HIV-1” (recombinant HIV-1 NL4-3 in which the Protease gene and the 5′ part of the Reverse Transcriptase gene was replaced by the corresponding sequences from a omni-drug-resistant clinical isolate, resistant to all currently available anti-HIV drugs. Infected cells were incubated with Compound No. 4 at a concentration of 250, 500 and 1000 nM or DMSO (control). The culture medium was changed every third day. Cell viability (Trypan-blue staining), cell counts and p24 levels were determined at day 6 and 12.
At day 12 of infection, the virus replicated vigorously in untreated cultures. Numbers describe percent inhibition of HIV-1 replication as compared to control experiments.

pIC50: −log10 of the molar value.

As for `CC(=NNC(=N)N)c1cc(NC(=O)CCCCCCCCC(=O)Nc2cc(C(C)=NNC(=N)N)cc(C(C)=NNC(=N)N)c2)cc(C(C)=NNC(=N)N)c1` [Compound 4, N,N′-bis (3,5-diacetylphenyl) decane diamide tetrakis (amidinohydrazone)], the Comment result in data set [1] (RSV, at the IC95/TC95 level) is reported as “Active”. This compound also showed a pIC50 in data set [1] (Vero cells newly infected with RSV) of 5.84. In addition, the “IC95” value in data set [1] (reduces the viral replication by 95%) was 2.96 µM. Further, the “cellular toxicities at effective antiviral dosages” value in the data set on HIV (HIV cellular systems) is recorded as “without apparent cellular toxicities”. The “inhibition of HIV replication” value in the data set on HIV (T-cell-tropic, macrophage-tropic, primary patient isolates, multidrug-resistant HIV strains) was “submicromolar range”. For the same compound, the IC50 with E. Coli XL-1 blue strain stood at 1 µM. In addition, the “percent inhibition of HIV-1 replication as compared to control” value in data set [2] (omni-drug-resistant HIV-1, 0.25 μM, d6) came out at 15%; in data set [2] (omni-drug-resistant HIV-1, 0.25 μM, d12), 64%; in data set [2] (omni-drug-resistant HIV-1, 0.5 μM, d6) it was 30%; in data set [2] (omni-drug-resistant HIV-1, 0.5 μM, d12) it was 95%; in data set [2] (omni-drug-resistant HIV-1, 1.0 μM, d6), 58%; in data set [2] (omni-drug-resistant HIV-1, 1.0 μM, d12) it was 97%.
